Measured values: PMC4261997 (British Journal of Pharmacology, 2014)

What was measured:
β2-adrenoceptor = conditions: read-out: affinity value for the β2-adrenoceptor; ref Baker et al., [2003b]; cited from earlier work
human β1-adrenoceptor [1] = target: T1, human β1-adrenoceptor (Homo sapiens, UniProt P08588); test: Automated live cell BODIPY-TMR-CGP binding, ImageXpress ultra confocal plate reader, CHO-β1 cells; conditions: 100 nM BOD-CGP; from two-site inhibition curve of the named antagonist, 1 h incubations
T1 sequence (P08588 whole entry): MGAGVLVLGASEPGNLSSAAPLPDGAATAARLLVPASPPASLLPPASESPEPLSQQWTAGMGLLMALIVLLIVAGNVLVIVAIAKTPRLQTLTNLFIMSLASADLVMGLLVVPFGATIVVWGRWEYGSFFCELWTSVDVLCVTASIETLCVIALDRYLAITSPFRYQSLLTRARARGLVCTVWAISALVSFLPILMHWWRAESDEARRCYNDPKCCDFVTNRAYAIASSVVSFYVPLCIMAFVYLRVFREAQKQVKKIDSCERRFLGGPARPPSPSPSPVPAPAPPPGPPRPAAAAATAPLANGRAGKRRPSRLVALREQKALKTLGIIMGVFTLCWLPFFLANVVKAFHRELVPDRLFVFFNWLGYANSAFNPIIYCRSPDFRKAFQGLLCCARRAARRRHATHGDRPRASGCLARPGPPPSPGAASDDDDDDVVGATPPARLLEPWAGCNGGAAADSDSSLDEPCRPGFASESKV

human β1-adrenoceptor [2] = target: T1, human β1-adrenoceptor; test: CRE-mediated SPAP transcription reporter gene assay in CHO-β1 cells; assay type: cell-based; conditions: for Proportion of low-affinity secondary site (site 2) bound: calculated from affinity values of the functional responses

Bordifluoropyrromethane-tetramethylrhodamine-(±)CGP 12177 [BODIPY-TMR-CGP]
Kd (β2-adrenoceptor): 25 nM
Fraction of BOD-CGP bound to the low-affinity binding site (%) (human β1-adrenoceptor [1]): 42.8 ± 0.9%
Proportion of low-affinity secondary site (site 2) bound (human β1-adrenoceptor [2]; 2 nM BODIPY-TMR-CGP): 2%
Proportion of low-affinity secondary site (site 2) bound (human β1-adrenoceptor [2]; 20 nM BODIPY-TMR-CGP): circa 17%
EMAX (% cimaterol) (human β1-adrenoceptor [2]; % of the maximum cimaterol response, CHO-β1 cells): 25.6 ± 3.2 %
pEC50 (human β1-adrenoceptor [2]; agonist stimulation of SPAP transcription, CHO-β1 cells): 7.12 ± 0.13
pKD (against CGP 12177) (human β1-adrenoceptor [2]; antagonism of CGP 12177 concentration-response curves, low-affinity site 2): 7.28 ± 0.22
pKD (against cimaterol) (human β1-adrenoceptor [2]; antagonism of cimaterol concentration-response curves, high-affinity site 1): 9.23 ± 0.06
pKA (partial agonism) (human β1-adrenoceptor [2]; from partial agonist concentration-response curve, operational model, cimaterol as full agonist, site 2): 7.06 ± 0.13
